Measurements: patent publication US20100062465A1, “Detection of Histone Deacetylase Inhibition” (priority 2006, published 2010)
Structures can show the parent of a compound that is named as a salt.

Assays:
[1] = In vivo toxicity of BLT after intraperitoneal injection; details: intraperitoneal 100 mg/kg once a week on three subsequent weeks
subcutaneous PC3 tumors = experiment: In vivo 19F MRS of BLT in subcutaneous PC3 tumors; details: intraperitoneal 100 mg/kg, 4.7 T
Description: As expected, the TFA peak could not be easily resolved in our preliminary in vivo studies. Intratumoral BLT levels may be higher in HDACI-treated tumors compared to controls, and therefore tumoral BLT levels may be used to assess HDAC activity in vivo. Downstream metabolic biomarkers also may be assessed in our preliminary studies. We were able to acquire a ^31P spectrum from PC3 subcutaneous tumors in 30 minutes providing a means for monitoring PC levels. This is consistent with previous studies in which an increase in PC could be monitored as an indicator of response to 17AAG treatment. ^1H MRS, with its greater sensitivity compared to ^31P, could also be used to monitor the total choline signal as a downstream metabolic marker of response to HDAC inhibition.

- Time the BLT signal remained detectable within the tumor region (subcutaneous PC3 tumors): over 2 hours
- MRS detectability in tumor (subcutaneous PC3 tumors; temporal resolution 5 minutes): MRS visible BLT signal
SMILES: CC(C)(C)OC(=O)N[C@@H](CCCCNC(=O)C(F)(F)F)C(=O)O [BLT, Boc-Lys-TFA-OH]
- Toxicity to the animal [1]: no detectable toxicity
